Residues, ends and D or L forms follow the SMILES beside them.
How the values were obtained:
[1] = molecular target: T1, TSG101 UEV (Homo sapiens, UniProt Q99816); assay: FP displacement assay, TSG101 UEV; format: binding; conditions: for IC50: read-out: IC50 values of displacement curves, with SEM; for Kd: read-out: KD values ± SEM
T1 construct: TSG101_UEV__Q99816_1_145; made in house; host or cells: Escherichia coli BL21-Gold(DE3)
T1 sequence (Q99816 1-145): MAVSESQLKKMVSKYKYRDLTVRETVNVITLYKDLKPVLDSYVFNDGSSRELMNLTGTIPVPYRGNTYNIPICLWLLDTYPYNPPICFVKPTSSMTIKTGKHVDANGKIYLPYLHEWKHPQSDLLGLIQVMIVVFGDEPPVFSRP
Protocol: (§1) FP experiments were performed as described previously (Kliche et al, [2021]). Shortly, in order to monitor the binding event, FITC‐labelled peptides were used (excitation 495 nm, emission: 535 nm) and the FP signal was recorded in mP on a SpectraMax iD5 Multi‐Mode Microplate Reader (Molecular Devices) by measuring the emitted light in two angels. The measurements were performed at room temperature and prepared in nonbinding black half area 96‐well microplates (Corning®; 50 μl/well). For measuring direct binding, that is saturation curves, a 1:1 dilution series of protein domain (25 μl/well) was generated in 50 mM sodium phosphate buffer pH 7.4 and the measurement performed with 5 nM FITC‐labelled peptide (25 μl/well). The buffer‐corrected values were subsequently plotted with PRISM and fitted to the quadratic equation (Gianni et al, [2005]).
(§2) The 1:1 dilution series in this experiment was performed with the unlabelled peptide in 50 mM sodium phosphate buffer pH 7.4, so that each well‐contained unlabelled peptide (25 μl) at a certain concentration and pre‐formed complex (25 μl). The KD values of this indirectly monitored binding event were calculated as described previously (Nikolovska‐Coleska et al, [2004]). All measurements were at least in technical triplicates as well as biological duplicates when indicated. An amplitude shift between repeat measurements in the displacement experiments was occasionally observed due to variations in the protein preparations. If that was the case, the “active” protein concentration was back‐calculated according to the quadratic equation from the saturation curves performed in parallel. By comparing the active protein concentrations in the complex between different protein preparations, the amplitude was normalised.

[2] = molecular target: T1, TSG101 UEV; assay: Phosphomimetic ProP-PD selection, TSG101 UEV; conditions: phosphomimetic enrichment score of the wild-type/phosphomimetic (E) pair at the phosphosite, PM_HD2 phage selection; positive = phosphomimetic enhances binding; P-value in brackets not taken
Protocol: (§3) Selections using the PM_HD2 phage library were performed as described previously with minor modification to the original protocol. The corresponding tag protein (either GST or MBP) was first used during negative selections. Selections were run for 4 days. • Bait and tag proteins (10–15 μg in 100 μl PBS) were immobilised in 96‐well MaxiSorb plate (NUNC) o.n. at 4°C. • Escherichia coli OmniMax bacteria were grown in 2YT medium supplemented with tetracycline (100 μg/ml) at 37°C and 200 rpm. • Plates with immobilised bait/tag proteins were blocked with 0.5% BSA in PBS for 1 h at 4°C. • Phage library (10 μl/well) was prepared by diluting 10× with PBS and adding one‐fourth of the volume of PEG/NaCl. For phage precipitation, prepared library was incubated for 10 min on ice followed by centrifugation for 10 min at 10,000 × g at 4°C. […]
(§4) Based on the results from phage pool ELISAs, samples from selection Day 3 and 4 were selected for NGS, as described previously (Benz et al, [2022]). • Peptide coding regions were amplified and dual‐barcoded by PCR. […] From the columns, samples were eluted with 30 μl TE (10 mM Tris–HCl, 1 mM EDTA. pH 7.5) buffer and quantified with Quant‐iT PicoGreen dsDNA Assay Kit. • Samples were sequenced on MiSeq (MSC 2.5.0.5/RTA 1.18.54) with a 151 nt (Read1) setup using “Version3” chemistry. […]

[3] = molecular target: T2, MAP1LC3A (Homo sapiens, UniProt Q9H492); assay: FP displacement assay, MAP1LC3A; format: binding; conditions: for IC50: Fig 4B, MAP1LC3A ATG8, FP displacement, technical triplicates, read-out: IC50 values of displacement curves, with SEM; for Kd: read-out: KD values ± SEM
T2 construct: GST (cleaved yes); made in house; host or cells: Escherichia coli BL21-Gold(DE3)

[4] = molecular target: T3, MAP1LC3B (Homo sapiens, UniProt Q9GZQ8); assay: FP displacement assay, MAP1LC3B; format: binding; conditions: read-out: KD values ± SEM
T3 construct: GST (cleaved yes); made in house; host or cells: Escherichia coli BL21-Gold(DE3)
Outline: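 Fluorescence polarization at room temperature in 50 mM sodium phosphate pH 7.4 with 5 nM FITC-labelled peptide; direct saturation curves with protein domain dilutions fitted to a quadratic equation. Displacement used unlabelled peptide dilutions against pre-formed complex, KD calculated per Nikolovska-Coleska; amplitudes normalised to back-calculated active protein concentration.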

[5] = molecular target: T2, MAP1LC3A; assay: Phosphomimetic ProP-PD selection, MAP1LC3A; conditions: phosphomimetic enrichment score of the wild-type/phosphomimetic (E) pair at the phosphosite, PM_HD2 phage selection; positive = phosphomimetic enhances binding; P-value in brackets not taken
Protocol: as §3, §4

[6] = molecular target: T3, MAP1LC3B; assay: Phosphomimetic ProP-PD selection, MAP1LC3B; conditions: phosphomimetic enrichment score of the wild-type/phosphomimetic (E) pair at the phosphosite, PM_HD2 phage selection; positive = phosphomimetic enhances binding; P-value in brackets not taken
Protocol: as §3, §4

[7] = molecular target: T4, GABARAPL2 (Homo sapiens, UniProt P60520); assay: FP displacement assay, GABARAPL2; format: binding; conditions: read-out: KD values ± SEM
T4 construct: GABARAPL2_ATG8__P60520_2_115; GST (cleaved yes); made in house; host or cells: Escherichia coli BL21-Gold(DE3)
Protocol: as §1, §2

[8] = molecular target: T4, GABARAPL2; assay: Phosphomimetic ProP-PD selection, GABARAPL2; conditions: phosphomimetic enrichment score of the wild-type/phosphomimetic (E) pair at the phosphosite, PM_HD2 phage selection; positive = phosphomimetic enhances binding; P-value in brackets not taken
Protocol: as §3, §4

[9] = Fig 4B, TSG101 UEV, technical triplicates
[10] = probe FITC-HIV2_Gag 5 nM, 50 mM sodium phosphate pH 7.4, room temperature, at least three technical replicates

T4 sequence (P60520 2-115): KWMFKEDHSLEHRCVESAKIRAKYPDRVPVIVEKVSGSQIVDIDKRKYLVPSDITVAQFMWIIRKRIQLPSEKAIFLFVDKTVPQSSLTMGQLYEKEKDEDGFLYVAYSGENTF

Row | Compound | PES [2] | Kd [4] [µM] | PES [5] | PES [6] | Kd [7] [µM] | PES [8] | also measured
1 | CC(=O)N[C@@H](Cc1c[nH]cn1)C(=O)N[C@@H](CO)C(=O)NCC(=O)N[C@@H](CC(N)=O)C(=O)N[C@H](C(=O)N[C@@H](CCC(=O)O)C(=O)N1CCC[C@H]1C(=O)N[C@H](C(=O)N[C@@H](C)C(=O)N1CCC[C@H]1C(=O)N1CCC[C@H]1C(=O)N[C@@H](Cc1ccc(O)cc1)C(=O)N[C@@H](CC(C)C)C(=O)N[C@@H](CCC(N)=O)C(=O)N[C@@H](CCC(=O)O)C(=O)N[C@@H](CO)C(N)=O)[C@@H](C)O)C(C)C [PIP4P2_17–32 E] (Ac-HSGNVEPTAPPYLQES-NH2) | −14 (0.0000002) | – | – | – | – | – | IC50 [1, 9]: 37 ± 8 µM; Kd [1, 10]: 18 ± 2 µM
2 | H3COC-QSIAREPS(pS/E)APSIPTPY-NH2 [PDCD6IP711–725 E, phosphomimetic (E) PDCD6IP 711-725 peptide] | −15 (0.00000004) | – | – | – | – | – | IC50 values of displacement curves, with SEM [1, 9]: n.b.; KD values ± SEM [1, 10]: n.b.
3 | CC(=O)N[C@@H](CCC(N)=O)C(=O)N[C@@H](CC(N)=O)C(=O)N[C@@H](CC(C)C)C(=O)N[C@@H](CO)C(=O)N[C@@H](CCCNC(=N)N)C(=O)N[C@@H](CCC(=O)O)C(=O)N[C@@H](Cc1c[nH]c2ccccc12)C(=O)N[C@@H](Cc1c[nH]cn1)C(=O)N[C@@H](CC(=O)O)C(=O)N[C@H](C(=O)N[C@@H](CCC(N)=O)C(=O)N[C@H](C(=O)N[C@@H](CO)C(=O)N[C@@H](CO)C(=O)N[C@@H](C)C(=O)N[C@@H](Cc1ccc(O)cc1)C(N)=O)C(C)C)C(C)C [TPD52L2_91–106 E] (Ac-QNLSREWHDVQVSSAY-NH2) | – | 225 ± 17 | 14 (0.000000099) | 3 (0.012) | – | – | IC50 [3]: 223 ± 12 µM; Kd [3]: 78 ± 3 µM
4 | CC(=O)N[C@@H](CC(C)C)C(=O)N[C@@H](CCC(=O)O)C(=O)N[C@@H](CC(=O)O)C(=O)N[C@@H](CC(=O)O)C(=O)N[C@@H](CCC(=O)O)C(=O)N[C@@H](CCC(N)=O)C(=O)N[C@@H](Cc1ccccc1)C(=O)N[C@H](C(=O)N[C@@H](CCC(=O)O)C(=O)N[C@@H](CC(C)C)C(=O)N[C@@H](Cc1ccc(O)cc1)C(=O)NCC(=O)N[C@H](C(=O)N[C@@H](CCC(=O)O)C(=O)N[C@@H](CCC(=O)O)C(=O)N[C@@H](Cc1ccc(O)cc1)C(N)=O)[C@@H](C)O)C(C)C [TBK1_164–179 E] | – | 2.1 ± 0.2 | 3.2 (0.0061) | 5.1 (0.00047) | 12.4 ± 0.6 | 1 (0.11) | –
5 | CC(=O)N[C@@H](Cc1ccc(O)cc1)C(=O)N[C@@H](CCCCN)C(=O)N[C@@H](CCCCN)C(=O)N[C@@H](CCC(N)=O)C(=O)N[C@@H](CC(C)C)C(=O)N[C@@H](CCCCN)C(=O)N[C@@H](CCCNC(=N)N)C(=O)N[C@@H](Cc1ccccc1)C(=O)N[C@@H](CCC(=O)O)C(=O)N[C@H](C(=O)N[C@@H](CCC(=O)O)C(=O)N[C@@H](CCC(=O)O)C(=O)N[C@@H](Cc1ccccc1)C(=O)N[C@H](C(=O)N[C@@H](CC(C)C)C(=O)N[C@@H](CC(C)C)C(=O)O)C(C)C)[C@@H](C)O [ATG4C444–458 E] (Ac-YKKQLKRFETEEFVLL-OH) | – | 4.6 ± 0.5 | 2.3 (0.015) | 6 (0.00063) | 1.8 ± 0.2 | 4.3 (0.0025) | IC50 [3]: 11 ± 1 µM; Kd [3]: 3.1 ± 0.2 µM
6 | CSCC[C@H](NC(=O)[C@@H]1CCCN1C(=O)[C@H](CCC(=O)O)NC(=O)[C@H](CC(C)C)NC(=O)[C@@H]1CCCN1C(=O)[C@H](C)NC(=O)[C@@H](NC(=O)[C@@H]1CCCN1C(=O)[C@H](CO)NC(=O)[C@H](CO)NC(=O)[C@H](C)NC(=O)CNC(=O)[C@H](CC(N)=O)NC(=O)[C@H](Cc1ccc(O)cc1)NC(C)=O)[C@@H](C)O)C(=O)N[C@@H](CO)C(=O)N1CCC[C@H]1C(N)=O [GJA1_269–283 E] (Ac-YNGASSPTAPLEPMSP-NH2) | 6 (0.0013) | – | – | – | – | – | IC50 [1, 9]: 232 ± 13 µM; Kd [1, 10]: 115 ± 4 µM
7 | CC(=O)N[C@@H](C)C(=O)N[C@@H](CC(N)=O)C(=O)N[C@@H](CO)C(=O)N[C@@H](Cc1c[nH]c2ccccc12)C(=O)N[C@@H](CCC(N)=O)C(=O)N[C@@H](CC(C)C)C(=O)N[C@H](C(=O)N[C@@H](CCC(=O)O)C(=O)N[C@@H](CCC(=O)O)C(=O)N1CCC[C@H]1C(=O)N[C@@H](CCC(=O)O)C(=O)N[C@@H](CCCCN)C(=O)N[C@@H](CCCNC(=N)N)C(=O)N[C@@H](CCCCN)C(=O)N[C@@H](CCC(=O)O)C(=O)N[C@@H](CCC(=O)O)C(N)=O)C(C)C [DLGAP4_907–922 E] (Ac-ANSWQLVEEPEKRKEE-NH2) | – | – | – | – | 260 ± 25 | −3.9 (0.00047) | –

From article PMC10333884, “Large‐scale phosphomimetic screening identifies phospho‐modulated motif‐based protein interactions” (Molecular Systems Biology, 2023)
